Data: PMC7391724 (Scientific Reports, 2020)
Structures can show the parent of a compound that is named as a salt.

Assays:
[1] = Liver microsome stability assay, rat; format: in vitro ADME; conditions: 1 µM; for percent of compound remaining: male rat liver microsomes, 37 °C
Procedure: (§1) Appropriate microsomes (XenoTech) were incubated with EC2491 in the presence or absence of NADPH regenerating system (Corning Gentest) at 37 °C. Incubations with NADPH contained 352.5 μL DI water, 100 μL 0.5 M potassium phosphate buffer, pH 7.4, 25 μL NADPH solution A, […], and 12.5 μL of the appropriate microsomes. Incubations without NADPH contained 382.5 μL water, 100 μL 0.5 M potassium phosphate buffer, pH 7.4, and 12.5 μL of the appropriate microsomes. 50 μL aliquots were withdrawn at various time points and mixed with internal standard, EC3044 (Endocyte) in acetonitrile. After mixing and evaporation of the acetonitrile, the samples were reconstituted. The samples were mixed, centrifuged, and 100 μL of supernatant was transferred to a new plate prior to LC–MS/MS analysis.

[2] = Liver microsome stability assay, dog; format: in vitro ADME; conditions: 1 µM; for percent of compound remaining: 37 °C
Procedure: as §1

[3] = Whole blood stability, human; format: in vitro ADME; conditions: 37 °C, after two hours, human whole blood, read-out: percent remaining in whole blood
Procedure: (§2) Whole blood and plasma stability were determined for EC2629 and EC2491 at a concentration of 500 nM. Samples were extracted and analyzed using fit-for-purpose bioanalytical methods. EC2629 or EC2491 was spiked into 1 mL whole blood or plasma maintained at 37 °C for 30 min prior to use . Fifty µl aliquots were then removed at defined timepoints and stored in a 1.2 mL extraction plate prior to analysis. Samples were then extracted using protein precipitation with a 3:1 ratio of acetonitrile after addition of internal standard. The supernatant was then transferred to a new plate, evaporated, and reconstituted prior to LC–MS/MS analysis.

[4] = Liver microsome stability assay, human; format: in vitro ADME; conditions: 1 µM, human liver microsomes, 37 °C
Procedure: as §1

[5] = Plasma stability, dog; format: in vitro ADME; conditions: 37 °C
Procedure: as §2

[6] = Plasma protein binding (ultrafiltration), across all species; format: in vitro ADME; conditions: rat, mouse, dog, human, 37 °C, read-out: plasma protein binding, range across all species
Procedure: Plasma ultrafiltration was used for determination of free and protein bound fractions of EC2629 and EC2491. Samples were extracted and analyzed using fit-for-purpose bioanalytical methods. Briefly, 500 nM EC2629 or EC2491 was spiked into plasma maintained at 37 °C prior to plasma ultrafiltration. Plasma spiked with 500 nM EC2629 or EC2491 was allowed to equilibrate at 37 °C for 30 min prior to processing. Next, 50 μL of plasma was transferred to a clean 1.2 mL plate stored at 2–8 °C for further processing. The remaining plasma sample volumes were transferred to 30 Kd MWCO PES filter to generate plasma ultrafiltrate by centrifugation at 10,000×g for 20 min. After which, 50 μL of each plasma ultrafiltrate was transferred to separate wells in a clean 1.2 mL plate. To all spiked plasma samples, 50 μL of blank plasma ultrafiltrate was added. 50 μL of blank plasma was added to all experimental ultrafiltrate samples. These blank matrix additions normalized the matrix effects for protein binding determination. Samples were then extracted using protein precipitation with a 3:1 ratio of acetonitrile after addition of internal standard. The supernatant transferred to a new plate, evaporated, and reconstituted prior to LC–MS/MS analysis.

[7] = Whole blood stability, dog; format: in vitro ADME; conditions: 37 °C, after two hours, read-out: percent remaining in whole blood
Procedure: as §2

[8] = Stability in phosphate buffer pH 7.4; format: physicochemical; conditions: 1 µM, 0.1 M phosphate buffer, pH 7.4, up to 1 h at 37 °C
Procedure: The in vitro metabolic stability of EC2491 was evaluated using rat, dog, and human liver microsomes in the presence and absence of NADPH. Stability of EC2491 was also evaluated in phosphate buffer, pH 7.4, under the incubation conditions (see Fig. 7a). EC2491 (1 µM) is stable in 0.1 M phosphate buffer, pH 7.4 up to 1 h at 37 °C. When EC2491 (1 µM) is incubated with male rat, dog, and human microsomes in the absence of NADPH, there is some depletion of the compound such that approximately 63%, 56%, and 49% of the compound remains after 1 h in rat, dog, and human microsomes, respectively. […] In the presence of NADPH male rat liver microsomes metabolize EC2491 rapidly such that only 2% of the compound remains in the incubation mixture at the end of 1 h. Male dog and human liver microsomes metabolize EC2491 somewhat slowly (22% and 18% remaining at the end of 1 h respectively). This is indicative of CYP-mediated metabolism of EC2491.

[9] = Whole blood stability, mouse; format: in vitro ADME; conditions: 37 °C, after two hours, mouse whole blood, read-out: percent remaining in whole blood
Procedure: as §2

[10] = Plasma stability, mouse; format: in vitro ADME; conditions: 37 °C
Procedure: as §2

[11] = Plasma stability, rat; format: in vitro ADME; conditions: 37 °C
Procedure: as §2

[12] = Whole blood stability, rat; format: in vitro ADME; conditions: 37 °C, after two hours, read-out: percent remaining in whole blood
Procedure: as §2

[13] = set-up: method as in PMID 19276288; conditions: clinical studies, untargeted agent ref 19; cited from earlier work
[14] = test system: KB tumor xenografts; assay: KB tumor xenograft in nu/nu mice; format: in vivo; conditions: SJG-136 0.3 mg/kg SIW x 2 weeks
Procedure: (§3) Four- to eight-week-old female nu/nu mice and rats (Harlan Sprague Dawley, Inc.), were maintained on a standard 12-h light–dark cycle and fed ad libitum with a low-folate chow (Harlan Teklad diet #TD.01013, Madison, WI) for the duration of dosing and 1 week post dosing schedule. Mice and rats were then switched to Teklad Global 18% Rodent diet (Harlan Teklad diet #2018S) during the monitoring phase of the study. Parental KB, KB-CR2000 or KB-PR10 cells (1 × 10^6/100 µL per nu/nu mouse and 5 × 10^6/200 µL per nu/nu rat) were injected into the subcutis of the dorsal medial area. Mice were divided into groups of 5 and rats in groups of 3–4, and freshly prepared test articles were injected through the lateral tail vein under sterile conditions in a volume of 200 μL/20 g of PBS. In mice, intravenous treatments typically initiated on day 7 PTI when KB tumors were approximately 111–168 mm^3 in volume, on day 5 PTI when the KB-PR tumors were about 205–243 mm^3, and on day 6 PTI when the KB-CR tumors were around 98 to 168 mm^3. Treatments in rats were started on day 10 PTI when KB tumors were approximately 412–704 mm^3 in volume.
(§4) Animals in the control groups received no treatment. Growth of each subcutaneous tumor was followed by measuring the tumor 3 times per week during treatment and twice per week thereafter, until a maximum volume of 1,500 mm^3 for mice and 15,000 mm^3 for rats were reached. Tumors were measured in two perpendicular directions using Vernier calipers, and their volumes were calculated as V = 0.5 × L × W^2, where L = measurement of longest axis in mm and W = measurement of axis perpendicular to L in mm[16]. As a general measure of gross toxicity, changes in body weights were determined on the same schedule as tumor volume measurements. Survival of animals was monitored daily. Animals that were moribund (or unable to reach food or water) were euthanized by CO2 asphyxiation. Individual tumor response endpoints were reported in terms of tumor volume change. A partial response (PR) was defined as volume regression > 50% but with measurable tumor (> 2 mm^3) remaining at all times. Complete response (CR) was defined as a disappearance of measurable tumor mass (< 2 mm^3) at some point within 90 days after tumor implantation. Cures were defined as CRs without tumor regrowth within the 90-day study time frame.

[15] = test system: KB-CR tumors; assay: Cisplatin-resistant KB-CR tumor xenograft in nu/nu mice; format: in vivo
Procedure: as §3, §4

[16] = test system: ST738 patient derived xenograft; assay: ST738 triple negative breast PDX model; format: in vivo, nu/nu mice; conditions: Eribulin mesylate 1 mg/kg SIW x 2 weeks, n=7
Procedure: (§5) Patient derived xenograft (PDX) studies were performed at South Texas Accelerated Research Therapeutics (START, San Antonio, TX). Patient tumor tissues were obtained with patients’ informed consent and PDX models were generated after multiple generations in mice. […] Tumor fragments were harvested from host animals and implanted into 6–12 weeks old female athymic nude mice (Crl:NU(NCr)-Foxn1nu). Intravenous treatments were initiated when ST502 (triple negative breast) tumors were approximately 112–333 mm^3, ST738 (triple negative breast) tumors were 112–300 mm^3, ST040 (endometrial) tumors were 78–333 mm^3, and ST070 (ovarian) tumors were 131–266 mm^3 in volume.
as §4

[17] = test system: ST502 patient derived xenograft; assay: ST502 triple negative breast PDX model; format: in vivo, nu/nu mice
Procedure: as §5, §4

[18] = test system: ST040 patient derived xenograft; assay: ST040 endometrial PDX model; format: in vivo, nu/nu mice
Procedure: as §5, §4

[19] = test system: KB-PR tumors; assay: Paclitaxel-resistant KB-PR tumor xenograft in nu/nu mice; format: in vivo
Procedure: as §3, §4

[20] = test system: ST070 patient derived xenograft; assay: ST070 ovarian PDX model; format: in vivo, nu/nu mice
Procedure: as §5, §4

[21] = Cisplatin 3 mg/kg BIW x 2 weeks, n=5
[22] = Eribulin mesylate 1 mg/kg SIW x 2 weeks, n=7
[23] = Paclitaxel 15 mg/kg SIW x 2 weeks, n=3
[24] = paclitaxel 15 mg/kg SIW x 2 weeks
[25] = Paclitaxel 20 mg/kg TIW x 2 weeks, n=5
[26] = Paclitaxel 15 mg/kg SIW x 2 weeks, n=7

## C=C1C[C@H]2C=Nc3cc(OCCCCCOc4cc5c(cc4OC)C(=O)N4CC(=C)C[C@H]4C=N5)c(OC)cc3C(=O)N2C1 [EC2491]
[1]; dexamethasone-treated male rat liver microsomes, + NADPH
  metabolism in CYP3A induced microsomes versus corn-oil treated controls: more rapid metabolism
[1]; absence of NADPH, after 1 h
  percent of compound remaining: approximately 63%
[1]; presence of NADPH, end of 1 h
  percent of compound remaining: 2%
[2]; dog liver microsomes, absence of NADPH, after 1 h
  percent of compound remaining: ~56%
[2]; male dog liver microsomes, presence of NADPH, end of 1 h
  percent of compound remaining: 22%
[2]; rifampin-treated dog liver microsomes, + NADPH
  metabolism in CYP3A induced microsomes versus corn-oil treated controls: more rapid metabolism
[3]
  remaining at 2 h, 500 nM: 80.6%
[4]; absence of NADPH, after 1 h
  percent of compound remaining: ~49%
[4]; presence of NADPH, end of 1 h
  percent of compound remaining: 18%
[5]
  time stable in plasma: greater than 24 h
[6]
  fraction unbound at 30 min, 500 nM: 0.02 to 0.05
[7]
  remaining at 2 h, 500 nM: 63.1%
[8]
  stability in buffer: stable
[9]
  remaining at 2 h, 500 nM: 87.3%
[10]
  time stable in plasma: greater than 24 h
[11]
  time stable in plasma: greater than 24 h
[12]
  remaining at 2 h, 500 nM: 95.6%

## C=C1C[C@H]2C=Nc3cc(OCCCOc4cc5c(cc4OC)C(=O)N4CC(=C)C[C@H]4C=N5)c(OC)cc3C(=O)N2C1 [SJG-136]
[13]
  clinical toxicity: dose-limiting hepatotoxicity and vascular leak syndrome
[14]
  average weight loss: ~ 10%
[14]; at 2 weeks post start of treatment, n=5
  deaths, number of animals: one
[14]; n=5
  CR (complete response), number of animals: 0
  Cures, number of animals: 2
  PR (partial response), number of animals: 2

## N.N.[Cl][Pt][Cl] [cisplatin]
[15]; [21]
  CR (complete response), number of animals: 0
  Cures, number of animals: 0
  PR (partial response), number of animals: 0
[15]; cisplatin 3 mg/kg BIW x 2 weeks
  antitumor effect: very little effect

## C=C1C[C@@H]2CC[C@@]34C[C@H]5O[C@H]6[C@@H](O3)[C@H]3O[C@H](CC[C@@H]3O[C@H]6[C@H]5O4)CC(=O)C[C@@H]3[C@@H](OC)[C@@H](C[C@H](O)CN)O[C@H]3C[C@H]3O[C@@H](CC[C@@H]1O2)C[C@@H](C)C3=C [eribulin mesylate]
[16]
  CR (complete response), number of animals: 0
  Cures, number of animals: 0
  PR (partial response), number of animals: two
[16]; listed as Eribulin mesylate
  PR (partial response), number of animals: 2
[17]; [22]
  CR (complete response), number of animals: 0
  Cures, number of animals: 0
  PR (partial response), number of animals: one
[17]; Eribulin mesylate 1 mg/kg SIW x 2 weeks, n=7, listed as Eribulin mesylate
  PR (partial response), number of animals: 1
[17]; eribulin mesylate 1 mg/kg SIW x 2 weeks
  antitumor activity: did not display significant anti-tumor activity

## CC(=O)O[C@H]1C(=O)[C@@]2(C)[C@H]([C@H](OC(=O)c3ccccc3)[C@]3(O)C[C@H](OC(=O)[C@H](O)[C@@H](NC(=O)c4ccccc4)c4ccccc4)C(C)=C1C3(C)C)[C@]1(OC(C)=O)CO[C@@H]1C[C@@H]2O [paclitaxel]
[18]; [23]
  CR (complete response), number of animals: 0
  Cures, number of animals: 0
  PR (partial response), number of animals: 0
[18]; [24]
  antitumor effect: modest tumor growth delay
[19]; [25]
  CR (complete response), number of animals: 0
  Cures, number of animals: 0
  PR (partial response), number of animals: 0
[19]; paclitaxel 20 mg/kg TIW x 2 weeks
  antitumor effect: very little effect
[20]; [26]
  CR (complete response), number of animals: 0
  Cures, number of animals: 0
  PR (partial response), number of animals: 0
[20]; [24]
  antitumor effect: essentially inactive
